Experimental data taken from PMC11321563, “Enolase inhibitors as therapeutic leads for Naegleria fowleri infection” (PLOS Pathogens, 2024).
Entries after “also recorded” stand apart in the source; their conditions may differ. Like-named read-outs stand apart in the source and are kept apart here.

How the values were obtained:
N. fowleri ENO (NfENO) = N. fowleri ENO (NfENO) (Naegleria fowleri, UniProt A0A6A5BXC3); test: NfENO coupled enzyme activity/inhibition assay (PK/LDH, NADH fluorescence); type: biochemical
Chain of N. fowleri ENO (NfENO) (A0A6A5BXC3 entry or part of it): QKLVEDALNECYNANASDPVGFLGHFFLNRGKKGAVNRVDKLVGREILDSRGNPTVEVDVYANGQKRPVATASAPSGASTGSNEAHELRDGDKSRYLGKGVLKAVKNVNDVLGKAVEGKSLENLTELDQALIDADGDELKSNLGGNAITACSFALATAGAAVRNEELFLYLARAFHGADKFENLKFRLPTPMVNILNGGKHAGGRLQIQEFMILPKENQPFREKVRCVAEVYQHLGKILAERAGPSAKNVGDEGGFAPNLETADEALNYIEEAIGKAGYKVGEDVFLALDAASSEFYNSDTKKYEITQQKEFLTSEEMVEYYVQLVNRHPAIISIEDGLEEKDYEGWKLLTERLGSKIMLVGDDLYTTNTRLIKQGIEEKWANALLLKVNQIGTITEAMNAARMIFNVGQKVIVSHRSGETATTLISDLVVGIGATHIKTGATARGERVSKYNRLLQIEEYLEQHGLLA
Experimental: (§1) ENO was assayed in triplicate using a coupled reaction to measure enzyme activity. Briefly, enzyme (50 nM) in assay buffer (100 mM HEPES, pH 8.0, 3.3 mM MgSO4) was loaded in black 96-well plates with or without inhibitors. To start the reaction, substrate buffer (3.75 mM 2-PG, 1.75 mM ADP, 1 U of pyruvate kinase/lactate dehydrogenase, and 0.4 mM NADH in assay buffer) was added to each well. The rate of reduction in fluorescence (excitation: 360 nm; emission: 460 nm), a measure of NAD production, was then scored on a Biotek Synergy H1 microplate reader every 20 seconds for 4 minutes. Kinetic analyses were performed with Prism 9.0 (GraphPad Software, San Diego, CA) using the Michaelis-Menten model. For assays involving inhibitors, compounds (in DMSO) were incubated at RT with enzyme in assay buffer […] for 15 minutes prior to initiation of the reaction by addition of the substrate. All assays were performed in triplicate with vehicle control (DMSO) included.

[1] = target: human ENO2 (gamma-enolase, HsENO2) (Homo sapiens, UniProt P09104); test: Human ENO2 coupled enzyme inhibition assay; type: biochemical
Chain of human ENO2 (gamma-enolase, HsENO2) (P09104 whole entry): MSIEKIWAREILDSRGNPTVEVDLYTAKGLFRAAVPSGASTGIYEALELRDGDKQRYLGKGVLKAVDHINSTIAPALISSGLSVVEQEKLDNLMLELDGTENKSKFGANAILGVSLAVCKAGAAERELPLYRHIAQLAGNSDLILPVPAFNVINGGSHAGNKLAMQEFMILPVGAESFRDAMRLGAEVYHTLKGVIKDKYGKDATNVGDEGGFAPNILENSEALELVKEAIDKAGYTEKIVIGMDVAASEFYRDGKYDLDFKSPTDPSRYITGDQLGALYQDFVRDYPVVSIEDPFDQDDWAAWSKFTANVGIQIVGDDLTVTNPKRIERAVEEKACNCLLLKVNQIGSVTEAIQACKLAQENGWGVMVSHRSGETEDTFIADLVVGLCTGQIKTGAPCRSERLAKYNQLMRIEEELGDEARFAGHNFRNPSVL
Experimental: as §1

[2] = system: N. fowleri strain Nf69 (ATCC 30215) trophozoites; test: N. fowleri trophozoite viability, CellTiter-Glo, 48 hr; type: cell-based, Naegleria fowleri; details: for EC50: Naegleria fowleri
Experimental: N. fowleri strain Nf69 (ATCC 30215) or strain TY (ATCC 30107) trophozoites and N. gruberi strain NEG-M (ATCC 30224) were cultured axenically as previously described. Briefly, parasites were seeded at 1 x 10^4 cells/mL (N. fowleri) or 5 x 10^3 cells/mL (N. gruberi) in 100 μL of the indicated medium in white TC-treated 96-well plates (Thermo Scientific Nunc Microwell 136101). For assays under standard growth conditions ("+ glc"), N. fowleri cells were seeded into Nelson’s Complete Media (NCM, 0.17% liver infusion broth (BD Difco, Franklin Lakes, NJ), 0.17% glucose, 0.012% sodium chloride, 0.0136% potassium phosphate monobasic, 0.0142% sodium phosphate dibasic, 0.0004% calcium chloride, 0.0002% magnesium sulfate, 10% heat-inactivated fetal bovine serum (FBS), 1% penicillin-streptomycin) at 37°C. For assays in modified medium ("-glc/+gly"), cells were seeded into the media without glucose but supplemented with 10 mM glycerol. For standard growth of N. gruberi, cells were seeded into PYNFH-complete media (1.0% peptone, 1.0% yeast extract, 0.1% yeast nucleic acid, 0.0015% folic acid, 0.0001% hemin, 0.0362% potassium phosphate monobasic, 0.05% disodium phosphate, 10% heat-inactivated fetal bovine serum (FBS), 1% penicillin-streptomycin) at 25°C. For determination of EC50 value, concentrations of drug ranging from 0.07826–5 μM were used. After culturing for 48 hr (37°C, 5% CO2 for N. fowleri, 25°C, 5% CO2 for N. gruberi) in the presence of compound or vehicle, plates were equilibrated to RT for 15 min and CellTiter Glo reagent (Promega, Madison, WI, USA) was added followed by orbital shaking for 2 min. After an additional incubation (RT, 10 min), luminescence was scored on a BioTek Synergy H1 mircoplate reader. Parasite density was scored and kinetic analyses were performed with Prism 9.0 (GraphPad Software, San Diego, CA) using the Michaelis-Menten model. All viability assays were performed in technical triplicates with at least three biological replicates.

[3] = HEK-293 cytotoxicity, CellTiter Blue, 48 hr; type: cell-based; details: human, HEK-293 cells (ATCC CRL-1573); HEK-293, 48 hr; no superscript in Fig 1; read-out: Human cell line CC50
Experimental: HEK-293 (ATCC CRL-1573) cells were cultured axenically in Dulbecco’s Modified Eagle Medium with 4.5g/L D-glucose, L-glutamine (Gibco 11965) and 10% fetal bovine serum (FBS) at 37°C, 5% CO2. […] After a 48 hr incubation (37°C, 5% CO2), CellTiter Blue reagent (Promega, Madison, WI, USA) was added to each well. After an additional 3-hour incubation (37°C, 5% CO2) with reagent, fluorescence was scored on a a BioTek Synergy H1 mircoplate reader and percent growth inhibition values were solved.

N. gruberi = N. gruberi growth; type: cell-based, Naegleria gruberi
Experimental: N. fowleri strain Nf69 (ATCC 30215) or strain TY (ATCC 30107) trophozoites and N. gruberi strain NEG-M (ATCC 30224) were cultured axenically as previously described. Briefly, parasites were seeded at 1 x 10^4 cells/mL (N. fowleri) or 5 x 10^3 cells/mL (N. gruberi) in 100 μL of the indicated medium in white TC-treated 96-well plates (Thermo Scientific Nunc Microwell 136101). For assays under standard growth conditions ("+ glc"), N. fowleri cells were seeded into Nelson’s Complete Media (NCM, 0.17% liver infusion broth (BD Difco, Franklin Lakes, NJ), 0.17% glucose, 0.012% sodium chloride, 0.0136% potassium phosphate monobasic, 0.0142% sodium phosphate dibasic, 0.0004% calcium chloride, 0.0002% magnesium sulfate, 10% heat-inactivated fetal bovine serum (FBS), 1% penicillin-streptomycin) at 37°C. For assays in modified medium ("-glc/+gly"), cells were seeded into the media without glucose but supplemented with 10 mM glycerol. […] After an additional incubation (RT, 10 min), luminescence was scored on a BioTek Synergy H1 mircoplate reader. Parasite density was scored and kinetic analyses were performed with Prism 9.0 (GraphPad Software, San Diego, CA) using the Michaelis-Menten model. […]

Balamuthia mandrillaris = Balamuthia mandrillaris growth; type: cell-based
Entamoeba histolytica = Entamoeba histolytica growth; type: cell-based
N. fowleri trophozoites = test: Unbiased metabolomics of amoebae after HEX treatment (2DLC-MS); type: cell-based, Naegleria fowleri; details: cells grown in glycerol, HEX-treated vs untreated
Experimental: For unbiased metabolomics analyses, N. fowleri trophozoites were grown to near 100% confluency in 6-well TC-treated plates (Thermo Scientific Nunclon Delta Surface 140685). […] Samples were then washed three times in RT PBS prior to the addition of ice-cold CH3CN. Plates were then incubated at –20°C for 20 min, followed by the addition of ice-cold nanopure H2O and removal of the solution to sterile microcentrifuge tubes. This process was repeated twice, and the total volume of extraction material was adjusted to 2.5 x 10^6 cell equivalents per sample. Tubes were stored at –80°C prior to analysis.
Each cell sample was vortexed with glass beads for 5 min in a MM200 Mix Grinder (Retsch USA, Newtown, PA, USA). The mixture was centrifuged at 14,000 rpm for 20 min at 4°C. The supernatant was transferred into a new tube and lyophilized overnight. The dried sample was reconstituted in 60 μL 50% CH3CN and analyzed in random order on a parallel two-dimensional liquid chromatography-mass spectrometry (2DLC-MS) system, a Thermo DIONEX UltiMate 3000 HPLC system (Thermo Fisher Scientific, Waltham, MA, USA) coupled with a Thermo Q Exactive HF Hybrid Quadrupole-Orbitrap Mass Spectrometer (Thermo Fisher Scientific, Waltham, MA, USA). […] Each sample was analyzed by the 2DLC-MS under both positive (+) and negative (–) modes to obtain full MS data for metabolite quantification. […]

[4] = system: N. fowleri strain 69 trophozoites; test: Rat model of N. fowleri infection, nasal instillation treatment; type: in vivo, Naegleria fowleri
From the text: Twenty-four CD rats (12 females, 12 males, aged 42–48 days, Charles River) housed in pairs were infected by nasal instillation with 2.5 x 10^5 N. fowleri strain 69 trophozoites that had been isolated after passage through mice to ensure virulence. Rats were provided unlimited food and water throughout the duration of the experiment. The two groups consisted of equal numbers of males and females. […] Rodents were monitored carefully and euthanized when symptoms of infection, including failure to respond to stimuli or seizures, were evident. After 17 days, surviving animals were sacrificed and brains were removed to assess cure.

[5] = Intranasal dose-finding tolerability in uninfected CD rats; type: in vivo, rat; details: 1.6, 16, or 120 mg/kg HEX in PBS once daily for five days
[6] = system: N. fowleri strain Nf69 (ATCC 30215) trophozoites; test: N. fowleri trophozoite viability, CellTiter-Glo, 48 hr; type: cell-based; details: Naegleria fowleri, ATCC30215, read-out: EC50 after short exposure
[7] = system: ENO1-rescued glioma and other control cells; set-up: method as in PMID 33230295; details: cited from earlier work
[8] = system: intracranial orthotopic ENO1-deficient tumors; set-up: method as in PMID 33230295; details: cited from earlier work
[9] = set-up: method as in PMID 33230295; details: non-human primates, cited from earlier work
[10] = set-up: method as in PMID 33230295; details: rats; cited from earlier work
Human cell line = details: read-out: Human cell line CC50, cited from earlier work
ENO1-/- glioma cells = details: read-out: EC50 against ENO1-/- glioma cells; cited from earlier work
[11] = recombinant NfENO, 50 nM enzyme, 15 min preincubation with compound, read-out: NfENO IC50
[12] = 15 min preincubation with compound, read-out: HsENO2 IC50
[13] = ATCC30215, 48 h, read-out: N. fowleri EC50
[14] = value with superscript 3 in Fig 1, footnote not given, ref superscript 3

## O=C(O)[C@@H](CO)OP(=O)(O)O [2-PG, 2-phosphoglycerate]
N. fowleri ENO (NfENO); truncation residues 44–512, NafoA.00379.a.B5.PW38978, read-out: apparent KM for 2-PG
  Km: 923 ± 0.336 µM

## O=C1C(P(=O)(O)O)CCN1OCc1ccccc1 (centres unmarked) [Benzyl- deoxy- SF2312]
N. fowleri ENO (NfENO); [11]
  IC50: > 10 µM
[1]; [12]
  IC50: > 10 µM
[2]; [13]
  EC50: > 10000 nM

## O=C1C(P(=O)(O)O)CCCCN1OCc1ccccc1 (centres unmarked) [Benzyl-HEPTA]
N. fowleri ENO (NfENO); [11]
  IC50: > 10 µM
[1]; [12]
  IC50: > 10 µM
[2]; [13]
  EC50: > 10000 nM

## O=C1C(P(=O)(O)O)CCCN1OCc1ccccc1 (centres unmarked) [BenzylHEX]
N. fowleri ENO (NfENO); at 10 μM
  impact on NfENO: no impact
N. fowleri ENO (NfENO); [11]
  IC50: > 10 µM
[1]; [12]
  IC50: > 10 µM
[2]; [13]
  EC50: > 10000 nM

## CC(C)OC(=O)[C@H](C)NP(=O)(OCOC(=O)C(C)(C)C)C1CCCN(O)C1=O (some centres unmarked) [CDP25]
N. fowleri ENO (NfENO)
  IC50: > 10 µM
[2]; [13]
  EC50: 310 ± 150 nM
[3]
  CC50 at 48 h: > 5 µM

## O=C1C(P(=O)(O)O)CCN1O (centres unmarked) [Deoxy-SF2312, (1-hydroxy-2-oxopyrrolidin-3-yl) phosphonic acid]
N. fowleri ENO (NfENO)
  IC50: 1.2 ± 0.47 µM
[1]
  IC50: 0.1 ± 0.04 µM
[1]; ratio of IC50 values
  fold more potent against ENO2 than NfENO: more than 10 fold
[2]; [13]
  EC50: 950 ± 200 nM
[3]
  CC50 at 48 h: > 200 µM

## O=C1C(P(=O)(O)O)CCCCN1O (centres unmarked) [HEPTA, (1-hydroxy-2-oxoazepan-3-yl) phosphonic acid]
N. fowleri ENO (NfENO)
  IC50: 4.7 ± 1.4 µM
[1]
  IC50: 5.8 ± 0.88 µM
[2]; [13]
  EC50: > 10000 nM

## O=C1C(P(=O)(O)O)CCCN1O (centres unmarked) [HEX, (1-hydroxy-2-oxopiperidin-3-yl) phosphonic acid]
N. fowleri ENO (NfENO)
  IC50: 0.14 ± 0.04 µM
  mode of NfENO inhibition: competitive inhibitor
[1]
  IC50: 0.36 ± 0.04 µM
[2]; [13]
  EC50: 210 ± 20 nM
[2]; ATCC30215, 336 h, read-out: EC50 of trophozoites cultured from brain of HEX-treated rodent
  EC50: 90 ± 40 nM
[2]; ATCC30215, 336 h, read-out: EC50 of trophozoites cultured from brain of PBS-treated (Vehicle) rodent
  EC50: 100 ± 80 nM
[2]; ATCC30215, 504 h, read-out: EC50 after removal of selection
  EC50: 110 ± 10 nM
[2]; ATCC30215, read-out: EC50 in glycerol medium
  EC50: 2500 ± 110 nM
[2]; ATCC30215, read-out: EC50 of HEX-adapted amoebae
  EC50: 570 ± 300 nM
N. gruberi
  impact on growth: no impact
Balamuthia mandrillaris
  impact on growth: no impact; also recorded: inactive
Entamoeba histolytica
  impact on growth: no impact
N. fowleri trophozoites
  decrease in pyruvate levels: ~50%
[4]; HEX 3 mg/kg nasal instillation for 10 days, >50% of the population survived
  median survival time: indeterminable; also recorded: undefined
[4]; day 11, HEX 3 mg/kg nasal instillation once a day for 10 days from day 2
  animals remaining at conclusion of treatment: 11 of 12
[4]; of the eight HEX-treated survivors
  survivors with brains positive for amoebae by culture: six of the eight and six
[5]
  adverse effects of intranasal instillation: none of the rats had any noticeable reaction to treatment
[6]
  EC50: 8.06 ± 2.6 µM
[7]
  CC50: > 300 µM
[8]
  intracranial tumor growth: almost completely inhibited intracranial tumor growth
[9]; IP 300 mg/kg, for several hours
  plasma concentrations: about 750 μM
[9]; IP
  IP dose tolerated without adverse effects: 300 mg/kg
[10]
  plasma elimination half-life: about 60 minutes
Human cell line; [14]
  CC50: > 300 µM
ENO1-/- glioma cells
  EC50: 1300 nM

## CC(C)(C)C(=O)OCOP(=O)(OCOC(=O)C(C)(C)C)C1CCCN(O)C1=O (centres unmarked) [POMHEX]
N. fowleri ENO (NfENO); [11]
  IC50: > 10 µM
[1]; [12]
  IC50: > 10 µM
[2]; [13]
  EC50: 700 ± 100 nM
Human cell line; [14]
  CC50: > 4.9 µM

## CC(C)(C)C(=O)OCOP(=O)(OCOC(=O)C(C)(C)C)C1CC(O)N(O)C1=O (centres unmarked) [POMSF]
N. fowleri ENO (NfENO); [11]
  IC50: > 10 µM
[1]; [12]
  IC50: > 10 µM
[2]; EC50 ratio
  increase in amoebicidal potency relative to SF2312: about 2.4 fold
[2]; [13]
  EC50: 660 ± 90 nM

## O=C1C(P(=O)(O)O)CC(O)N1O (centres unmarked) [SF2312, (1,5-dihydroxy-2-oxopyrrolidin-3-yl) phosphonic acid, reference compound]
N. fowleri ENO (NfENO)
  IC50: 0.31 ± 0.07 µM
[1]
  IC50: 0.63 ± 0.01 µM
[2]; [13]
  EC50: 1600 ± 110 nM
Human cell line; value with superscript 1 in Fig 1, footnote not given, ref superscript 1
  CC50: > 200 µM
